# Source: US6716987B1, “Derivatives of benzofuran or benzodioxazole compounds” (Kyowa Hakko Kogyo Co., Ltd., priority 1995, dated 2004)
# Columns and labels:
# [1] = tested on: cAMP-specific phosphodiesterase (PDE IV); experiment: Inhibition of the PDE IV enzyme derived from a dog trachea; assay type: biochemical; conditions: test compound 10^−6 M; PDE IV from dog tracheal smooth muscle; substrate cAMP 1 μM
# How it was run: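 Enzyme purified from dog tracheal smooth muscle; [3H]cAMP substrate at 1 μM final in 50 mM BES pH 7.2, 1 mM MgCl2, 0.1 mg/ml soybean trypsin inhibitor, 30° C for 10–30 min, 1.7% DMSO final. After HCl stop, product converted to adenosine by 5′-nucleotidase, separated on DEAE-Sephadex and scintillation-counted.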
# [2] = biological target: T1, phosphodiesterase 4A (Homo sapiens, UniProt P27815); experiment: Recombinant human PDE4A assay; assay type: biochemical
# T1 construct: made in house; host or cells: E. coli
# T1 sequence (P27815 224-886 limits assumed): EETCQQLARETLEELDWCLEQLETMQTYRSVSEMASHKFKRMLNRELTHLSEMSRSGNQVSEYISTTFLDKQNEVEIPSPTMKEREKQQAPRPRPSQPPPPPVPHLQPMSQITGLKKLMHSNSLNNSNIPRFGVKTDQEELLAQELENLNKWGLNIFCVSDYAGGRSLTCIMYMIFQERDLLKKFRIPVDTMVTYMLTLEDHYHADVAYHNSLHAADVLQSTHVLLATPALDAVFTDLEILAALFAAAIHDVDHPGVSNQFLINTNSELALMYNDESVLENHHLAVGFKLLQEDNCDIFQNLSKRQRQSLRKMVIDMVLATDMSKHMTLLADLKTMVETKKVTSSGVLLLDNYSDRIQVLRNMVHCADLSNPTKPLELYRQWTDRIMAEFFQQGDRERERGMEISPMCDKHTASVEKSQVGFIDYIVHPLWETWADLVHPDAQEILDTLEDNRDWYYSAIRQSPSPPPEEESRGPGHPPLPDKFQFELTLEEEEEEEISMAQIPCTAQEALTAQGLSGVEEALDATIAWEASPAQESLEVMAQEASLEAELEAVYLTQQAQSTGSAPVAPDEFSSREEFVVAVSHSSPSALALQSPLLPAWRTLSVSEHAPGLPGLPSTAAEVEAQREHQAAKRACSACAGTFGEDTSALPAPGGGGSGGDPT
SMILES,melting point,"Enzyme Inhibitory Activity (%, 10^−6 M) [1]","Enzyme Inhibitory Activity (%, 10^−7 M) [2]","inhibition at 0.1 µM ([2]; 10^−7 M, read-out: Enzyme Inhibitory Activity (%, 10^−7 M))"
"COc1ccc(C(=O)Nc2c(Cl)cncc2Cl)c2c1OCC2CC(=O)NCc1ccc(F)cc1 (racemic) [Compound 29, (±)-4-[(3,5-Dichloro-4-pyridyl)aminocarbonyl]-3-[(4-fluorobenzyl)aminocarbonyl]methyl-7-methoxy-2,3-dihydro-benzofuran]",287 °C,85%,–,–
"COc1ccc(C(=O)Nc2c(Cl)cncc2Cl)c2c1OCC2CC(=O)NCc1ccc(Cl)cc1 (racemic) [Compound 30, (±)-3-[(4-Chlorobenzyl)aminocarbonyl]methyl-4-[(3,5-dichloro-4-pyridyl)aminocarbonyl]-7-methoxy-2,3-dihydro-benzofuran]",283 to 286 °C,85%,–,–
"COc1ccc(C(=O)Nc2c(Cl)cncc2Cl)c2c1OCC2CC(=O)NCc1ccccc1Cl (racemic) [Compound 31, (±)-3-[(2-Chlorobenzyl)aminocarbonyl]methyl-4-[(3,5-dichloro-4-pyridyl)aminocarbonyl]-7-methoxy-2,3-dihydro-benzofuran]",288 to 289 °C,89%,–,–
"COc1ccc(C(=O)Nc2c(Cl)cncc2Cl)c2c1OCC2CC(=O)Nc1c(Cl)cncc1Cl (racemic) [Compound 32, (±)-4-[(3,5-Dichloro-4-pyridyl)aminocarbonyl]-3-[(3,5-dichloro-4-pyridyl)aminocarbonyl]methyl-7-methoxy-2,3-dihydrobenzofuran]",> 300 °C,81%,–,–
"COc1ccc(CSc2ccncc2)c2c1OCC2C (racemic) [Compound 59, (±)-7-Methoxy-3-methyl-4-(4-pyridylthiomethyl)-2,3-dihydrobenzofuran]",110 to 112 °C,24%,–,–
"COc1ccc(C(Sc2ccncc2)c2ccccc2)c2c1OCC2C (racemic) [Compound 60A, (±)-7-Methoxy-3-methyl-4-[1-phenyl-1-(4-pyridylthio)-methyl]-2,3-dihydrobenzofuran]",59 to 62 °C,15%,–,–
"COc1ccc(C(Sc2ccncc2)c2ccccc2)c2c1OCC2C (racemic) [Compound 60B, (±)-7-Methoxy-3-methyl-4-[1-phenyl-1-(4-pyridylthio)-methyl]-2,3-dihydrobenzofuran]",84 to 85 °C,4%,–,–
"COc1ccc(C(C#N)Cc2c(Cl)cncc2Cl)c2c1OC(C)(C)C2 (racemic) [Compound 63, (±)-4-[1-Cyano-2-(3,5-dichloro-4-pyridyl)ethyl]-2,2-dimethyl-7-methoxy-2,3-dihydrobenzofuran]",158 to 162 °C,85%,–,–
"COc1ccc(C(=Cc2ccncc2)c2ccccc2)c2c1OCC2C (racemic) [Compound 80, (±)-7-Methoxy-3-methyl-4-[1-phenyl-2-(4-pyridyl)ethenyl]-2,3-dihydrobenzofuran]",103 to 105.5 °C,17%,–,–
"COc1ccc(C(=O)Cc2c(Cl)cncc2Cl)c2c1OCC2C (racemic) [Compound 103, (±)-4-[2-(3,5-Dichloro-4-pyridyl)-1-oxoethyl]-7-methoxy-3-methyl-2,3-dihydrobenzofuran]",99 to 104 °C,88%,–,–
"COc1ccc(C(=O)Cc2ccncc2)c2c1OCC2C (racemic) [Compound 104, (±)-7-Methoxy-3-methyl-4-[1-oxo-2-(4-pyridyl)ethyl]-2,3-dihydrobenzofuran]",111 to 117 °C,48%,–,–
COc1ccc(C(=O)Nc2c(Cl)cncc2Cl)c2cc(C(=O)c3ccccc3)oc12 [Compound 35],–,–,100%,–
"CCCCc1cc2c(C(=O)Nc3c(Cl)cncc3Cl)ccc(OC)c2o1 [Compound 36, 2-Butyl-4-(3,5-dichloropyridin-4-ylaminocarbonyl)-7-methoxybenzofuran]",160 to 164 °C,87%,–,–
"COc1ccc(C(=O)Nc2c(Cl)cncc2Cl)c2cc(-c3ccncc3)oc12 [Compound 38, 4-[(3,5-Dichloro-4-pyridyl)aminocarbonyl]-7-methoxy-2-(4-pyridyl)benzofuran]",289 to 290 °C,89%,–,–
"COc1ccc(C(=O)Nc2c(Cl)cncc2Cl)c2cc(-c3ccccn3)oc12 [Compound 40, 4-[(3,5-Dichloro-4-pyridyl)aminocarbonyl]-7-methoxy-2-(2-pyridyl)benzofuran]",263 to 264 °C,89%,–,–
"COc1ccc(C(=O)Nc2c(Cl)cncc2Cl)c2c(-c3ccccc3)coc12 [Compound 42, 4-[(3,5-Dichloro-4-pyridyl)aminocarbonyl]-7-methoxy-3-phenylbenzofuran]",177 to 179 °C,73%,–,–

SMILES,melting point,"Enzyme Inhibitory Activity (%, 10^−6 M) [1]","Enzyme Inhibitory Activity (%, 10^−7 M) [2]","inhibition at 0.1 µM ([2]; 10^−7 M, read-out: Enzyme Inhibitory Activity (%, 10^−7 M))"
"CCOC(=O)Cc1coc2c(OC)ccc(C(=O)Nc3c(Cl)cncc3Cl)c12 [Compound 43, 3-Ethoxycarbonylmethyl-4-[(3,5-dichloro-4-pyridyl)-aminocarbonyl]-7-methoxybenzofuran]",216 to 218 °C,62%,–,–
"COc1ccc(CCc2c(Cl)cncc2Cl)c2c1OC(C)(C)C2 [Compound 45, 4-[2-(3,5-Dichloro-4-pyridyl)ethyl]-7-methoxy-2,2-dimethyl-2,3-dihydrobenzofuran]",128 to 133 °C,74%,–,–
"COc1ccc(CSc2ccncc2)c2c1OC(C)(C)C2 [Compound 48, 7-Methoxy-2,2-dimethyl-4-(4-pyridylthiomethyl)-2,3-dihydrobenzofuran]",109 to 113 °C,41%,–,–
"CCOC(=O)/C(=C/c1ccc(OC)c2c1CC(C)(C)O2)c1ccncc1 [Compound 87, (E)-4-[2-Ethoxycarbonyl-2-(4-pyridyl)ethenyl]-7-methoxy-2,2-dimethyl-2,3-dihydrobenzofuran]",98 to 100 °C,61%,–,–
"CCOC(=O)C(C#N)=Cc1ccc(OC)c2c1CC(C)(C)O2 [Compound 89, 4-(2-Cyano-2-ethoxycarbonylethenyl)-7-methoxy-2,2-dimethyl-2,3-dihydrobenzofuran]",112 to 117 °C,33%,–,–
"CCC1(CC)Cc2c(C(=O)Cc3c(Cl)cncc3Cl)ccc(OC)c2O1 [Compound 97, 4-[2-(3,5-Dichloro-4-pyridyl)-1-oxoethyl]-2,2-diethyl-7-methoxy-2,3-dihydrobenzofuran]",164 to 166 °C,92%,–,–
"COc1ccc(C(=O)Cc2c(Cl)cncc2Cl)c2c1OC1(CCCC1)C2 [Compound 99, 4-[2-(3,5-Dichloro-4-pyridyl)-1-oxoethyl]-7-methoxy-spiro[2,3-dihydrobenzofuran-2,1′-cyclopentane]]",159 to 162 °C,91%,–,–
"COc1ccc(C(=O)Cc2ccncc2)c2c1OC1(CCCCC1)C2.Cl [Compound 102, 7-Methoxy-4-[1-oxo-2-(4-pyridyl)ethyl]-spiro[2,3-dihydrobenzofuran-2,1′-cyclohexane].hydrochloride]",–,–,95%,–
"COc1ccc(C(=O)Cc2c(Cl)cncc2Cl)c2cc(-c3ccncc3)oc12.Cl.Cl [Compound 114, 4-[2-(3,5-Dichloro-4-pyridyl)-1-oxoethyl]-7-methoxy-2-(4-pyridyl)benzofuran.2 hydrochloride]",–,–,100%,–
"COc1ccc(C(=O)Nc2c(Cl)cncc2Cl)c2c1OC(C)(C)C=C2 [Compound 121, 5-(3,5-Dichloro-4-pyridylaminocarbonyl)-8-methoxy-2,2-dimethylbenzopyran]",174 to 178 °C,85%,–,–
"COc1ccc(C(=O)Nc2c(Cl)cncc2Cl)c2c1OC(C)(C)CC2 [Compound 122, 5-(3,5-Dichloro-4-pyridylaminocarbonyl)-8-methoxy-2,2-dimethyl-3,4-dihydrobenzopyran]",155 to 156 °C,92%,–,–
"COc1ccc(C=Cc2c(Cl)cncc2Cl)c2c1CC1(CCCC1)O2 [Compound 131, 7-[2-(3,5-Dichloro-4-pyridyl)ethenyl]-4-methoxy-spiro[2,3-dihydrobenzofuran-2,1′-cyclopentane]]",99 to 101 °C,51%,–,–
"COc1ccc(C(=O)Cc2c(Cl)cncc2Cl)c2c1CC1(CCCC1)O2 [Compound 132, 7-[2-(3,5-Dichloro-4-pyridyl)-1-oxoethyl]-4-methoxy-spiro[2,3-dihydrobenzofuran-2,1′-cyclopentane]]",70 to 72 °C,66%,–,–
"COc1ccc(C(=O)Cc2c(Cl)cncc2Cl)c2c1OC1(CCCC1)O2 [Compound 140, 7-[2-(3,5-Dichloro-4-pyridyl)-1-oxoethyl]-4-methoxy-spiro[1,3-benzodioxole-2,1′-cyclopentane]]",–,–,–,100%
"COc1ccc(C(=O)Cc2ccncc2)c2c1OC1(CCCC1)O2.Cl [Compound 141, 4-Methoxy-7-[1-oxo-2-(4-pyridyl)ethyl]-spiro[1,3-benzodioxole-2,1′-cyclopentane].hydrochloride]",–,–,76%,–
"COc1ccc(C#Cc2ccncc2)c2c1OC1(CCCC1)C2 [Compound 142, 7-Methoxy-4-[2-(4-pyridyl)ethynyl]-spiro[2,3-dihydrobenzofuran-2,1′-cyclopentane]]",128 to 131 °C,76%,–,–
